{
  "source": "patent US10898548B2",
  "about": "“Modulators of protein tyrosine phosphatase and uses thereof” (LEUVAS THERAPEUTICS, priority 2015, dated 2021)",
  "assay_type_in_all_cases": "in vivo, mouse",
  "key": {"[1]": {"tested_on": "Hbb^th3/+ mice (β-thalassemia model)", "test": "bone marrow erythroid precursors by flow cytometry (CD44, TER119)", "details": "for percent of bone marrow erythroid precursors (fsc high CD44+TER119+ cells), Mean: ICD-Treated, 3 weeks", "description": "(§1) Wild-type C57BL/6J mice and the mouse model for β-thalassemia (designated as Hbb^th3/+) were used for these studies. Flow cytometric analysis and sorting of mouse bone marrow and spleen precursors were performed using standard protocols using markers for CD44 and TER119 and cell size (forward scatter) to distinguish erythroid precursors at each distinct developmental stage. Forward scatter high-CD44+Ter119+ cells represents total erythroblasts (or erythroid mass in bone marrow or spleen). These erythroblasts can be further analyzed and sorted in subpopulations: population I: pro-erythroblasts; population II: basophilic erythroblasts; population III: polychromatic erythroblasts; population IV: orthochromatic erythroblasts, as described in Matte et al 2015, Antioxid. Redox Signal. 2015 23(16):1284-1297. Population II, III and IV corresponding to basophilic erythroblasts, polychromatic erythroblasts and orthochromatic erythroblasts were sorted from bone marrow as previously described (Matte et al 2015 Antioxid. Redox Signal. 2015 23(16):1284-1297).\nIneffective erythropoiesis in β-thalassemia is characterized by a block in cell maturation with accumulation of erythroid precursors and increased cell apoptosis in late phase erythropoiesis in the bone marrow.\nTreatment of Hbb^th3/+ mice with PTPRG ICD results in a statistically significant increases in the percent of proerythroblasts (P<0.001) back to normal levels (5.9+/−0.6). In addition, ROS levels, which are increased in all four populations in Hbb mice compared to wild type mice are decreased PTPRG ICD-treated mice in all four populations, in agreement with the decrease in ROS levels in circulating red cells (Table 39)."}, "[2]": {"test": "body weight as a measure of toxicity", "details": "Wild-type and Hbb^3th/+ mice; 5 mg/kg i.p once every other day for 3 weeks", "description": "(§2) Wild-type and Hbb^3th/+ were treated with TAT-ICD at 5 mg/kg i.p once every other day for 3 weeks. […] Hematological parameters, red blood cell indices and reticulocyte counts were determined using standard procedures. Table 37 summarizes the effect of treatment of WT and HBB mice with TAT-ICD9 on key hematological parameters and red cell indices."}, "[3]": {"tested_on": "Hbb^th3/+ mice (β-thalassemia model)", "test": "apoptosis of bone marrow orthochromatic erythroblasts (Annexin-V PE)", "details": "ICD-Treated, 3 weeks", "description": "One of the hallmarks of β-thalassemia is increased apoptosis of late-stage erythroblasts. Apoptosis of population IV (orthochromatic erythroblasts) was assessed using standard protocols using the Annexin-V PE apoptosis kit following manufacturer instructions. Data are the mean percent of apoptotic cells (Table 42)."}, "[4]": {"tested_on": "Hbb^th3/+ mice (β-thalassemia model)", "test": "percent of soluble alpha globin in red cells", "details": "TAT-ICD 5 mg/kg i.p once every other day for 3 weeks", "text": "We also observed a significant improvement in the α/β globin ratio with treatment of beta-thalassemic mice, a key measure of successful treatment of beta-thalassemia. The mutations in the beta-globin gene in beta-thalassemia results in absent or reduced synthesis of beta-globin chains leading to unbalanced globin chain synthesis and unpaired alpha-chain that form highly toxic aggregates in erythroid progenitors and red blood cells, and can be measured as a decrease in soluble alpha globulin. We measured the amount of soluble vs insoluble globulin not bound to heme (Table 38) and observed a significant (P<0001; 2 tailed T test) decrease in the percent of soluble alpha-globin in the beta-thalassemic mice compared to wild type mice (Table 38)."}, "[5]": {"tested_on": "Hbb^th3/+ mice (β-thalassemia model)", "test": "hematological parameters and red cell indices in β-thalassemic and wild-type mice", "parameters": "CH (hemoglobin concentration): unit not given here", "details": "TAT-ICD 5 mg/kg i.p. once every other day for 3 weeks", "description": "as §1, §2"}, "[6]": {"tested_on": "Hbb^th3/+ mice (β-thalassemia model)", "test": "extramedullary erythropoiesis in spleen", "details": "treated mice, 3 weeks", "description": "as §1"}},
  "note": "Marks after values point to notes of the source that are not given here.",
  "data": [
    {"substance": "TAT-ICD: fusion recombinant protein SEQ ID 5: PTPRG intracellular domain aa 797-1445 fused to 13 aa TAT sequence", "values": [
      {"measurement": "percent of bone marrow erythroid precursors (fsc high CD44+TER119+ cells), Mean", "setting": "[1]; Hbb^th3/+ mice", "value": "23.8* percent"},
      {"measurement": "percent of bone marrow erythroid precursors (fsc high CD44+TER119+ cells), Mean", "setting": "[1]; Wild-type mice", "value": 13.9, "unit": "%"},
      {"measurement": "percent of pro-erythroblasts (population I) in bone marrow", "setting": "[1]; treated Hbb^th3/+ mice, untreated Hbb^th3/+ 3.6+/−0.9, wild-type 6.5+/−0.9", "value": "5.9+/−0.6%"},
      {"measurement": "body weight as a measure of toxicity", "setting": "[2]", "value": "no changes were observed"},
      {"measurement": "mean percent of apoptotic cells, bone marrow orthochromatic erythroblasts (population IV)", "setting": "[3]; Hbb^th3/+ mice", "value": "5.75* percent"},
      {"measurement": "mean percent of apoptotic cells, bone marrow orthochromatic erythroblasts (population IV)", "setting": "[3]; Wild-type mice", "value": 4.20, "unit": "%"},
      {"measurement": "percent of soluble alpha globulin", "setting": "[4]; Hbb^th3/+ mice, Vehicle-treated 87.9", "value": "92.5* %"},
      {"measurement": "percent of soluble alpha globulin", "setting": "[4]; Wild-type mice, Vehicle-treated 98.4", "value": 97.9, "unit": "%"},
      {"measurement": "CH (hemoglobin concentration)", "setting": "[5]; Hbb3th/+ mice, n = 4", "value": "10.4 ± 0.3"},
      {"measurement": "CHr (reticulocyte hemoglobin concentration)", "setting": "[5]; Hbb3th/+ mice, n = 4", "value": "12.0 ± 0.39", "unit": "pg"},
      {"measurement": "Hb (hemoglobin)", "setting": "[5]; Hbb3th/+ mice, n = 4", "value": "10.1 ± 0.3", "unit": "g/dL"},
      {"measurement": "Hct (hematocrit)", "setting": "[5]; Hbb3th/+ mice, n = 4", "value": "34.8 ± 4.9", "unit": "%"},
      {"measurement": "MCH (mean corpuscular hemoglobin)", "setting": "[5]; Hbb3th/+ mice, n = 4", "value": "10.2 ± 0.4", "unit": "pg"},
      {"measurement": "MCV (mean corpuscular volume)", "setting": "[5]; Hbb3th/+ mice, n = 4", "value": "393 ± 0.9", "unit": "fL"},
      {"measurement": "MCVr (mean corpuscular volume reticulocytes)", "setting": "[5]; Hbb3th/+ mice, n = 4", "value": "49.2 ± 1.2", "unit": "fL"},
      {"measurement": "Neutrophil", "setting": "[5]; Hbb3th/+ mice, n = 4", "value": "1407 ± 597", "unit": "cells/uL"},
      {"measurement": "RDW (red cell distribution width)", "setting": "[5]; Hbb3th/+ mice, n = 4", "value": "25.7 ± 1.0", "unit": "%"},
      {"measurement": "Retics (reticulocytes)", "setting": "[5]; Hbb3th/+ mice, n = 4", "value": "18.2 ± 2.0", "unit": "%"},
      {"measurement": "WBC", "setting": "[5]; Hbb3th/+ mice, n = 4", "value": "9125 ± 1021", "unit": "cells/uL"},
      {"measurement": "CH (hemoglobin concentration)", "setting": "[5]; WT mice, n = 3", "value": "13.6 ± 0.2"},
      {"measurement": "CHr (reticulocyte hemoglobin concentration)", "setting": "[5]; WT mice, n = 3", "value": "14.0 ± 0.1", "unit": "pg"},
      {"measurement": "Hb (hemoglobin)", "setting": "[5]; WT mice, n = 3", "value": "14.9 ± 0.4", "unit": "g/dL"},
      {"measurement": "Hct (hematocrit)", "setting": "[5]; WT mice, n = 3", "value": "46.3 ± 0.5", "unit": "%"},
      {"measurement": "MCH (mean corpuscular hemoglobin)", "setting": "[5]; WT mice, n = 3", "value": "15.0 ± 0.7", "unit": "pg"},
      {"measurement": "MCV (mean corpuscular volume)", "setting": "[5]; WT mice, n = 3", "value": "50.1 ± 0.1", "unit": "fL"},
      {"measurement": "MCVr (mean corpuscular volume reticulocytes)", "setting": "[5]; WT mice, n = 3", "value": "55.0 ± 0.3", "unit": "fL"},
      {"measurement": "Neutrophil", "setting": "[5]; WT mice, n = 3", "value": "1833 ± 461", "unit": "cells/uL"},
      {"measurement": "RDW (red cell distribution width)", "setting": "[5]; WT mice, n = 3", "value": "13.6 ± 0.3", "unit": "%"},
      {"measurement": "Retics (reticulocytes)", "setting": "[5]; WT mice, n = 3", "value": "4.3 ± 0.5", "unit": "%"},
      {"measurement": "WBC", "setting": "[5]; WT mice, n = 3", "value": "6005 ± 980", "unit": "cells/uL"},
      {"measurement": "extramedullar erythropoiesis in spleen", "setting": "[6]", "value": "trend to reduction"}
    ]}
  ]
}
